For five compounds, IC50, Ratio IC50 and Ki results are on record in ChEMBL document CHEMBL5620412, “Discovery of benzofuran-2-carboxylic acid derivatives as lymphoid tyrosine phosphatase (LYP) inhibitors for cancer immunotherapy” (Eur J Med Chem, 2023).

Assay [1] has as its target T1, Tyrosine-protein phosphatase non-receptor type 12 (Homo sapiens, UniProt Q05209).
T1 sequence (Q05209 whole entry): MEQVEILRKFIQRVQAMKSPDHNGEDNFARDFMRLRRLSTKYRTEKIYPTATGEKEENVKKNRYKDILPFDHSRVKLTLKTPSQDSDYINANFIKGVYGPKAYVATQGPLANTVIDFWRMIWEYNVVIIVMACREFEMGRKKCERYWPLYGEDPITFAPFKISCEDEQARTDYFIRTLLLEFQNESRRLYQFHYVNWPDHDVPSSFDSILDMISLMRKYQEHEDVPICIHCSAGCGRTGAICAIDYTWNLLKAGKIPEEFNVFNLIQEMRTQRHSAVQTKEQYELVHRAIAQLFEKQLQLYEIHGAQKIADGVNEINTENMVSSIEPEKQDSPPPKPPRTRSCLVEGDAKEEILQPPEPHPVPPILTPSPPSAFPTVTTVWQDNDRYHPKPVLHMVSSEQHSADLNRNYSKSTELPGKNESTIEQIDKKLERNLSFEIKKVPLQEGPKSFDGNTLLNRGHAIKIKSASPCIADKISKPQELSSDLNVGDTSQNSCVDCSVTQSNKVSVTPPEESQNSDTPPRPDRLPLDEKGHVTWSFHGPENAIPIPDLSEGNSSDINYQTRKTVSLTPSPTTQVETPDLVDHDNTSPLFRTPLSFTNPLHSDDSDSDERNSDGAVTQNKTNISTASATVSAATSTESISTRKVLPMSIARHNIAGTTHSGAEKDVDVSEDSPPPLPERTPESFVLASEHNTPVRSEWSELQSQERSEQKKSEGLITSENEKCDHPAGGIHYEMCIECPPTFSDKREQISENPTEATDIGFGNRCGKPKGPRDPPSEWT
Kind of assay: Inhibition of N-terminal His-tagged PTPN12 catalytic domain (1 to 294 residues) (unknown origin) expressed in Escherichia coli BL21 (DE3) cells.

Assay [2] is described as follows: Selectivity ratio of IC50 for inhibition of N-terminal His-tagged SSH2 catalytic domain (1 to 294 residues) (unknown origin) expressed in Escherichia coli BL21 (DE3) cells to IC50 for inhibition of N-terminal His-tagged LYP catalytic domain (1 to 294 residues) (unknown origin) expressed in Escherichia coli BL21 (DE3) cells using pNPP as substrate.
Assay [3] in a line: Selectivity ratio of IC50 for inhibition of N-terminal His-tagged PTPN5 catalytic domain (1 to 294 residues) (unknown origin) expressed in Escherichia coli BL21 (DE3) cells to IC50 for inhibition of N-terminal His-tagged LYP catalytic domain (1 to 294 residues) (unknown origin) expressed in Escherichia coli BL21 (DE3) cells using pNPP as substrate.
Assay [4] addresses T2, Tyrosine-protein phosphatase non-receptor type 1 (Homo sapiens, UniProt P18031).
T2 sequence (P18031 whole entry): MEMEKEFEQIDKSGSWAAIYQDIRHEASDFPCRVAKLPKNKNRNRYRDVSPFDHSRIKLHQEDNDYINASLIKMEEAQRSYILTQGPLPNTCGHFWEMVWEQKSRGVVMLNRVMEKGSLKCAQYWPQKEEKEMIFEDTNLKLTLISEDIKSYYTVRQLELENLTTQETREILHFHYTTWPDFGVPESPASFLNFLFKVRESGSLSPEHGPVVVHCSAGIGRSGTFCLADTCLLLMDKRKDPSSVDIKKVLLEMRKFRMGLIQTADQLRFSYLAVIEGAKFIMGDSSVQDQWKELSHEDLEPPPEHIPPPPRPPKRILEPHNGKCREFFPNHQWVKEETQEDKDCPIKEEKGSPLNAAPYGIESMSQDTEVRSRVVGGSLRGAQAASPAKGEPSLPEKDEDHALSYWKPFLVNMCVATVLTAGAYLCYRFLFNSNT
In words: Inhibition of N-terminal His-tagged PTP1B catalytic domain (1 to 294 residues) (unknown origin) expressed in Escherichia coli BL21 (DE3) cells.

The target of assay [5] is T3, Tyrosine-protein phosphatase non-receptor type 22 (Homo sapiens, UniProt Q9Y2R2).
T3 sequence (Q9Y2R2 whole entry): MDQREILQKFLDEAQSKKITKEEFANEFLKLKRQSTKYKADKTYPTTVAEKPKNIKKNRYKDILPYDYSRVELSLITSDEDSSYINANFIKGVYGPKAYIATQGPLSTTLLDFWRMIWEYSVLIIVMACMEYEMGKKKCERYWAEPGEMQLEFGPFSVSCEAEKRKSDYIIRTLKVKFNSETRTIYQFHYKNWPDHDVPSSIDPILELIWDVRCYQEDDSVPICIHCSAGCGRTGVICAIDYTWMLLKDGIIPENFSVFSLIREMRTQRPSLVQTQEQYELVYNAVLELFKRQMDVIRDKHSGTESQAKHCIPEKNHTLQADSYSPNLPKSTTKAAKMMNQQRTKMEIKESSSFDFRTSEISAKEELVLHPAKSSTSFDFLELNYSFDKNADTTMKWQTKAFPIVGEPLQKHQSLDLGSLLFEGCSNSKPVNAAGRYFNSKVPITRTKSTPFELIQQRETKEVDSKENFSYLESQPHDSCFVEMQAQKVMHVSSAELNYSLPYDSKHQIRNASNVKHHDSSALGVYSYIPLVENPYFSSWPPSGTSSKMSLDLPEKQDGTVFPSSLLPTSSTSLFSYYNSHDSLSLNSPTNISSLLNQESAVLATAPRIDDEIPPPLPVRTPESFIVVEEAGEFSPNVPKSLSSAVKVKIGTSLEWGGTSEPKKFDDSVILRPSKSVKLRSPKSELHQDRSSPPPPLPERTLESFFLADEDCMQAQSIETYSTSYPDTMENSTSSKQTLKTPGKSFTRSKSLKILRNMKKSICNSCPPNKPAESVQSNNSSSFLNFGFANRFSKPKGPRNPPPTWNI
In words: Competitive inhibition of N-terminal His-tagged LYP catalytic domain (1 to 294 residues) (unknown origin) expressed in Escherichia coli BL21 (DE3) cells using pNPP as substrate assessed as inhibition constant by Lineweaver-Burk plot analysis.

Assay [6] in a line: Selectivity ratio of IC50 for inhibition of N-terminal His-tagged PTPN12 catalytic domain (1 to 294 residues) (unknown origin) expressed in Escherichia coli BL21 (DE3) cells to IC50 for inhibition of N-terminal His-tagged LYP catalytic domain (1 to 294 residues) (unknown origin) expressed in Escherichia coli BL21 (DE3) cells using pNPP as substrate.

In general, IC50 refers to the concentration that gives 50% inhibition. Read a high IC50 as a need for much substance. As usually defined, the Ki is a dissociation constant, usually derived from enzyme kinetics or from competition with a known ligand. As for `O=C(O)c1cc2cc(N(Cc3ccc(OCc4ccccc4)cc3)S(=O)(=O)c3ccc(-c4ccccc4)cc3)ccc2o1`, the results for the half-inhibitory concentration (IC50) in assay [1] and in assay [4] were 11.7 µM and 10.7 µM, respectively. The Ratio IC50 in assay [2] was more than 5.5; in assay [3], more than 3.5; in assay [6], more than 3.5. Besides, the Ki in assay [5] amounted to 0.93 µM.
For the compound `CC(=O)C1=C(C)N=c2s/c(=C/c3ccc(OCc4ccc(C(=O)O)cc4)cc3)c(=O)n2C1c1ccc(N(C)C)cc1` (stereo not drawn), the IC50 in assay [1] came to 8.2 µM; in assay [4] it was 7.1 µM. Also, in assay [5], the Ki is 4.38 µM. Besides, the Ratio IC50 in assay [6] worked out at 1.2.
Consider `O=C(O)c1cc2cc(N(Cc3cccc(-c4ccccc4)c3)S(=O)(=O)c3ccc(-c4ccccc4)cc3)ccc2o1`, for which the IC50 in assay [1] is 6.4 µM; in assay [4] it was 5.9 µM. Further, the figures for the Ratio IC50 in assay [2], in assay [3] and in assay [6] were more than 5.5, more than 5.5 and 1.8, respectively.
As to `COc1ccc(-c2ccc(CN(c3ccc4oc(C(=O)O)cc4c3)S(=O)(=O)c3ccc(Cl)c([N+](=O)[O-])c3)cc2)cc1`, the IC50 amounted to 12.3 µM in assay [1] and 13.7 µM in assay [4]. For the same compound, the Ki in assay [5] was found to be 1.34 µM.
For `O=C(O)c1cc2cc(N(Cc3ccc(-c4ccccc4)cc3)S(=O)(=O)c3ccc(-c4cccc(O)c4)cc3)ccc2o1`, the IC50 worked out at 10.6 µM in assay [1] and 6.4 µM in assay [4]. For the same compound, the Ratio IC50 in assay [2] was more than 5.5; in assay [3], more than 5.5; in assay [6], 1.8.
